From patent US20260308145A1, “CDK2 INHIBITORS AND METHODS OF USING SAME” (Shenzhen lonova Life Science Co., Ltd., priority 2023, published 2026) come the findings set out here.

Assay type in all cases: biochemical
One experiment concerns the target T1, CDK1/cyclinB1 (Homo sapiens, UniProt P06493).
T1 construct: purchased Carna Biosciences 04-102
Kind of experiment: Cyclin-dependent kinase activity assay (continuous ATP coupling assay), CDK1/cyclinB1. The following applies: CDK1/cyclinB1 10 nM, ATP 200 μM, Histone1 copeptide 100 μM, 15 min preincubation, pH 7.5, 1% DMSO. The method, then:
(§1) Cyclin-dependent kinase activity assay was measured by continuous ATP coupling assay in which ADP generated by kinase catalyzed phosphorylation was converted back to ATP by consuming phosphoenolpyruvate (PEP) and NADH catalyzed by pyruvate kinase/lactate dehydrogenase (PK/LDH). The assay compositions (see, Table 1) consist of one of the kinases, including CDK1/cyclinB1, CDK2/cyclinE1, CDK4/cyclinD3, and CDK6/cyclinD3 at the designated concentration, ATP at the corresponding Km of the kinase, copeptide and the ATP coupling system of PEP, NADH and PK/LDH. The assay was conducted in a reaction buffer of 20 mM Tris (pH 7.5) with 50 mM NaCl, 0.5 mM DTT and 0.04% BSA, and results were monitored continuously by fluorescence decrease of NADH with excitation at 340 nm and emission at 460 nm. Linear regression of the resulting reaction time traces gave reaction velocities.
(§2) For inhibition assay, compounds were first serial diluted in a 1:3 ratio from 10 μM to 0.05 nM using 10× reaction buffer. One of the CDK kinase was then introduced to compounds solution and incubated for 15 min. Finally, the compositions of ATP coupling system were introduced to the resulting solution to initiate the reaction. The final reaction mixture was in 1× reaction assay buffer with 1% DMSO. The half-maximal inhibition concentrations (IC50) for compounds were determined by fitting the plots of reaction velocity against compound concentration with 4-variable IC50 equation. The inhibition constants (Ki) were determined by fitting the same plots with quadratic/Morrison equation. Data were analyzed using commercially available software Graphpad Prism.
(§3) Exemplary results are presented as calculated IC50 values. • A: IC50≤10 nM • B: IC50>10 nM and IC50<100 nM • C: IC50≥100 nM

In another experiment the target is T2, CDK2/cyclinE1 (Homo sapiens, UniProt P24941).
T2 construct: purchased Carna Biosciences 04-165
The experiment in a line: Cyclin-dependent kinase activity assay (continuous ATP coupling assay), CDK2/cyclinE1. Particulars: CDK2/cyclinE1 5 nM, ATP 300 μM, Rb copeptide 100 μM, 15 min preincubation, pH 7.5, 1% DMSO. The method, then:
as §1, §2, §3

The target of a further experiment is T3, CDK6/cyclinD3 (Homo sapiens, UniProt Q00534).
T3 construct: purchased Carna Biosciences 04-107
T3 sequence (Q00534 whole entry): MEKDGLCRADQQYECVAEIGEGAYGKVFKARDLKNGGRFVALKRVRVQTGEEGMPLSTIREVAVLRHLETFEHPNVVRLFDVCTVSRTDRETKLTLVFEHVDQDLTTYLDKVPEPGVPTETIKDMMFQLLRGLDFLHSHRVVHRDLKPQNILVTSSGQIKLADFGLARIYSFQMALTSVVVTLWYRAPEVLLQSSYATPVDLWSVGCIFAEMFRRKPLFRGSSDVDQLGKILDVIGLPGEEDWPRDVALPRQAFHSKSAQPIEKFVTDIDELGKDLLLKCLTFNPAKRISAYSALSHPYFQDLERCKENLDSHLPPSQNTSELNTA
T3 sequence (P30281 whole entry partner): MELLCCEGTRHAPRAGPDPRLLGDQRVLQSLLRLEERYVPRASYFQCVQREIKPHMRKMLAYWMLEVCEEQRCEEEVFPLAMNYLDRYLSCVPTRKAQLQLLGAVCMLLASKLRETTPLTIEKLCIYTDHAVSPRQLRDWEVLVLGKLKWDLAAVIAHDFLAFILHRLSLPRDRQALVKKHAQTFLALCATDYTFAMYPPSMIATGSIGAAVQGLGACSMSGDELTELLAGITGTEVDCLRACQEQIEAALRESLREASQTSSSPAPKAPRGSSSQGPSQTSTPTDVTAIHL
The experiment in a line: Cyclin-dependent kinase activity assay (continuous ATP coupling assay), CDK6/cyclinD3. The following applies: CDK6/cyclinD3 25 nM, ATP 500 μM, Rb copeptide 500 μM, 15 min preincubation, pH 7.5, 1% DMSO. The method, then: as §1, §2, §3

A further experiment has as its target T4, CDK4/cyclinD3 (Homo sapiens, UniProt P11802).
T4 construct: purchased Carna Biosciences 04-105
The experiment in a line: Cyclin-dependent kinase activity assay (continuous ATP coupling assay), CDK4/cyclinD3. Particulars: CDK4/cyclinD3 60 nM, ATP 500 μM, Rb copeptide 500 μM, 15 min preincubation, pH 7.5, 1% DMSO. As for the experimental part:
as §1, §2, §3

The structures appear in SMILES notation. pIC50: −log10 of the molar value. A value given as a limit tells only on which side of the number the result lay.

A word on the pIC50: it is the negative decadic logarithm of the IC50, by convention in mol/L. Higher therefore signals a small IC50.

T1 sequence (P06493 whole entry): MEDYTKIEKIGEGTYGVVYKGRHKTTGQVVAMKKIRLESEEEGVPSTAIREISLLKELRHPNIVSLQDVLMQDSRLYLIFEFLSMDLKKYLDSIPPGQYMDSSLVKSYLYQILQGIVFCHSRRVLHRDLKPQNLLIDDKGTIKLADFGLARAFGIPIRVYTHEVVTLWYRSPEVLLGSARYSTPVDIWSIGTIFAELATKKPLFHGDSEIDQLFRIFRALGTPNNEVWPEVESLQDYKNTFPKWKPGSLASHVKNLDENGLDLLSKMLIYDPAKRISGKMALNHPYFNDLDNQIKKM
T1 sequence (P14635 whole entry partner): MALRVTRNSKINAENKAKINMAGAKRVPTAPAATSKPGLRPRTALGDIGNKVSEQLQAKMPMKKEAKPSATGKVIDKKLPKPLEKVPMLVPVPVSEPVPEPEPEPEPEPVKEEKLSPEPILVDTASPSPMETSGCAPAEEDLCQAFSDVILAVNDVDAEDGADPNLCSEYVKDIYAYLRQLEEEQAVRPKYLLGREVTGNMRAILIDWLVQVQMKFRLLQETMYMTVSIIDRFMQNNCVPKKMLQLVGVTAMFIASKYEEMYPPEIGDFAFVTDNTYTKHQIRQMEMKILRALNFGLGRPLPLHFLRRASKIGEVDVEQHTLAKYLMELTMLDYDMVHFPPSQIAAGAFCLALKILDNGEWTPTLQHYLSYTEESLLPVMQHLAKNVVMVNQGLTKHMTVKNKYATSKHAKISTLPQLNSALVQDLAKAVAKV
T4 sequence (P11802 whole entry): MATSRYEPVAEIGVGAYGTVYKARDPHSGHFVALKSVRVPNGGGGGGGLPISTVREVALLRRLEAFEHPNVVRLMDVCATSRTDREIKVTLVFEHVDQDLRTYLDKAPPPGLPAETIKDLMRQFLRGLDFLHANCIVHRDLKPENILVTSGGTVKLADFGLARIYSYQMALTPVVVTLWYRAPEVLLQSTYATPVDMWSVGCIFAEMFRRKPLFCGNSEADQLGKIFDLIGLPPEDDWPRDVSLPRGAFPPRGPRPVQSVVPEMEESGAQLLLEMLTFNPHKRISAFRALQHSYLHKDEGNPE
T4 sequence (P30281 whole entry partner): as the sequence (P30281 whole entry partner) above

Take `CS(=O)(=O)N1CCC(Nc2ncc(C(F)(F)F)c(-n3cccn3)n2)CC1` [Example 19]: the pIC50 on CDK1/cyclinB1 is no more than 7.00; against CDK2/cyclinE1, no less than 8.00; on CDK6/cyclinD3 it was 7.00 to 8.00; against CDK4/cyclinD3, 7.00 to 8.00.

Consider `[2H]C([2H])([2H])NS(=O)(=O)c1ccc(Nc2ncc(C(F)(F)F)c(-n3ccc(C(F)(F)F)n3)n2)cc1` [Example 54], for which the pIC50 is no more than 7.00 at CDK1/cyclinB1, 7.00 to 8.00 against CDK2/cyclinE1, no more than 7.00 at CDK6/cyclinD3 and no more than 7.00 against CDK4/cyclinD3.

With `CNS(=O)(=O)c1ccc(Nc2ncc(C(F)(F)F)c(-n3cc(C4(C#N)CC4)cn3)n2)cc1` [Example 51, 4-[[4-[4-(1-cyanocyclopropyl)pyrazol-1-yl]-5-(trifluoromethyl)pyrimidin-2-yl]amino]-N-methyl-benzene sulfonamide], the pIC50 against CDK1/cyclinB1 was no more than 7.00; against CDK2/cyclinE1 it was 7.00 to 8.00; at CDK6/cyclinD3, no more than 7.00; against CDK4/cyclinD3, no more than 7.00.

With `N#Cc1cnc(Nc2ccc(S(=O)(=O)NCCO)cc2)nc1-n1cccn1` [Example 119], the pIC50 on CDK1/cyclinB1 is no more than 7.00; against CDK2/cyclinE1 it was 7.00 to 8.00; on CDK6/cyclinD3 it was 7.00 to 8.00; against CDK4/cyclinD3 it was no more than 7.00.

For `O=S(=O)(NCCO)c1ccc(Nc2ncc(C(F)F)c(-n3cccn3)n2)cc1` [Example 116, 4-((5-(difluoromethyl)-4-(1H-pyrazol-1-yl)pyrimidin-2-yl)amino)-N-(2-hydroxyethyl)benzenesulfonamide], the pIC50 against CDK1/cyclinB1 is no more than 7.00; at CDK2/cyclinE1 it was 7.00 to 8.00; on CDK6/cyclinD3, no more than 7.00; on CDK4/cyclinD3, no more than 7.00.

For the compound `CNS(=O)(=O)c1ccc(Nc2ncc(C(F)(F)F)c(-n3cc([C@@H]4CCC[C@@H]4O)cn3)n2)cc1` (single isomer, unassigned) [Example 76], the pIC50 on CDK1/cyclinB1 was no more than 7.00; on CDK2/cyclinE1 it was 7.00 to 8.00; on CDK6/cyclinD3, no more than 7.00; against CDK4/cyclinD3, 7.00 to 8.00.

Regarding `CNS(=O)(=O)c1ccc(Nc2ncc(C(F)(F)F)c(-n3cc(N4CC(O)C4)cn3)n2)cc1` [Example 100], the pIC50 at CDK1/cyclinB1 was 7.00 to 8.00; on CDK2/cyclinE1, no less than 8.00; against CDK6/cyclinD3, no more than 7.00; at CDK4/cyclinD3, no more than 7.00.

In the case of `O=S(=O)(CCCO)c1ccc(Nc2ncc(C(F)(F)F)c(-n3cccn3)n2)cc1` [Example 130, 3-[4-[[4-pyrazol-1-yl-5-(trifluoromethyl)pyrimidin-2-yl]amino]phenyl]sulfonylpropan-1-ol], the pIC50 against CDK1/cyclinB1 was no more than 7.00; at CDK2/cyclinE1, 7.00 to 8.00; against CDK6/cyclinD3 it was no more than 7.00; on CDK4/cyclinD3 it was no more than 7.00.

Take `CCS(=O)(=O)N1C2CCC1CC(Nc1ncc(C(F)(F)F)c(-n3cccn3)n1)C2` (stereo not shown) [Example 31]: the pIC50 against CDK1/cyclinB1, against CDK2/cyclinE1, against CDK6/cyclinD3 and on CDK4/cyclinD3 was no more than 7.00 throughout.

In the case of `CNS(=O)(=O)c1ccc(Nc2ncc(C)c(-n3cc(CC(C)(C)O)cn3)n2)cc1` [Example 63], the pIC50 was no more than 7.00 against CDK1/cyclinB1, 7.00 to 8.00 at CDK2/cyclinE1, 7.00 to 8.00 against CDK6/cyclinD3 and 7.00 to 8.00 against CDK4/cyclinD3.

Take `O=S(=O)(NC1CC(F)(F)C1)c1ccc(Nc2ncc(C(F)(F)F)c(-n3cccn3)n2)cc1` [Example 41]: the negative-log IC50 (pIC50) against CDK1/cyclinB1 was no more than 7.00; on CDK2/cyclinE1, 7.00 to 8.00; at CDK6/cyclinD3, no more than 7.00; on CDK4/cyclinD3, no more than 7.00.

`CNS(=O)(=O)c1ccc(Nc2ncc(C(F)(F)F)c(-n3cc(C(F)(F)F)cn3)n2)cc1` [Example 47]: the pIC50 at CDK1/cyclinB1 is 7.00 to 8.00; on CDK2/cyclinE1 it was 7.00 to 8.00; against CDK6/cyclinD3, no more than 7.00; on CDK4/cyclinD3, no more than 7.00.

As for `CNS(=O)(=O)c1ccc(Nc2ncc(C(F)(F)F)c(-n3cc([C@H]4CC[C@H](O)C4)cn3)n2)cc1` (single isomer, unassigned) [Example 79], the negative-log IC50 (pIC50) is 7.00 to 8.00 against CDK1/cyclinB1, no less than 8.00 against CDK2/cyclinE1, 7.00 to 8.00 against CDK6/cyclinD3 and 7.00 to 8.00 at CDK4/cyclinD3.

As to `O=S(=O)(NCCO)c1ccc(Nc2ncc(Cl)c(-n3cccn3)n2)cc1` [Example 117], the pIC50 on CDK1/cyclinB1 was 7.00 to 8.00; against CDK2/cyclinE1, no less than 8.00; at CDK6/cyclinD3, no more than 7.00; against CDK4/cyclinD3 it was no more than 7.00.

In the case of `CNS(=O)(=O)c1ccc(Nc2ncc(C(F)(F)F)c(-n3cc(C4CNC4)cn3)n2)cc1` [Example 15], the pIC50 against CDK1/cyclinB1 is 7.00 to 8.00; against CDK2/cyclinE1, no less than 8.00; against CDK6/cyclinD3 it was 7.00 to 8.00; against CDK4/cyclinD3, 7.00 to 8.00.

Consider `O=S(=O)(NC1COC1)c1ccc(Nc2ncc(C(F)(F)F)c(-n3cccn3)n2)cc1` [Example 40], for which the negative logarithm of the IC50 (pIC50) against CDK1/cyclinB1 is no more than 7.00; against CDK2/cyclinE1, no less than 8.00; on CDK6/cyclinD3, no more than 7.00; on CDK4/cyclinD3, no more than 7.00.

As to `CNS(=O)(=O)c1ccc(Nc2ncc(C(F)(F)F)c(-n3cc(CC(C)(C)O)c(C)n3)n2)cc1` [Example 70], the pIC50 was no more than 7.00 on CDK1/cyclinB1, 7.00 to 8.00 on CDK2/cyclinE1, no more than 7.00 on CDK6/cyclinD3 and no more than 7.00 on CDK4/cyclinD3.

On to `CNS(=O)(=O)c1ccc(Nc2ncc(C(F)(F)F)c(-n3cc(Br)cn3)n2)cc1` [Example 44], for which the pIC50 at CDK1/cyclinB1 was no more than 7.00; against CDK2/cyclinE1, 7.00 to 8.00; against CDK6/cyclinD3 it was no more than 7.00; on CDK4/cyclinD3, no more than 7.00.

As for `NS(=O)(=O)c1ccc(Nc2ncc(C(F)(F)F)c(-n3cccn3)n2)c(F)c1` [Example 28], the negative logarithm of the IC50 (pIC50) at CDK1/cyclinB1 is no more than 7.00; against CDK2/cyclinE1, 7.00 to 8.00; at CDK6/cyclinD3, no more than 7.00; against CDK4/cyclinD3 it was no more than 7.00.

Turning to `Cc1cnc(Nc2ccc(S(=O)(=O)NCCO)cc2)nc1-n1cccn1` [Example 114], the pIC50 against CDK1/cyclinB1 is no more than 7.00; on CDK2/cyclinE1, 7.00 to 8.00; at CDK6/cyclinD3, no more than 7.00; against CDK4/cyclinD3 it was no more than 7.00.

With `CNS(=O)(=O)c1ccc(Nc2ncc(C(F)(F)F)c(-n3cc(C(C)(C)C(C)(C)O)cn3)n2)cc1` [Example 60], the pIC50 against CDK1/cyclinB1 is 7.00 to 8.00; against CDK2/cyclinE1, 7.00 to 8.00; against CDK6/cyclinD3 it was no more than 7.00; at CDK4/cyclinD3 it was 7.00 to 8.00.

Regarding `CNS(=O)(=O)c1ccc(Nc2ncc(C(F)(F)F)c(-n3cc(CN4CCNCC4)cn3)n2)cc1` [Example 84], the pIC50 against CDK1/cyclinB1 was no more than 7.00; on CDK2/cyclinE1, 7.00 to 8.00; on CDK6/cyclinD3, no more than 7.00; on CDK4/cyclinD3, no more than 7.00.

Turning to `CNS(=O)(=O)c1ccc(Nc2ncc(Cl)c(-n3cccn3)n2)cc1` [Example 24], the pIC50 was no more than 7.00 against CDK1/cyclinB1, 7.00 to 8.00 at CDK2/cyclinE1, no more than 7.00 on CDK6/cyclinD3 and no more than 7.00 against CDK4/cyclinD3.

As to `CNS(=O)(=O)c1ccc(Nc2ncc(C(F)(F)F)c(-n3cc(-c4ccoc4)cn3)n2)cc1` [Example 86], the pIC50 was no more than 7.00 against CDK1/cyclinB1, 7.00 to 8.00 at CDK2/cyclinE1, no more than 7.00 at CDK6/cyclinD3 and no more than 7.00 on CDK4/cyclinD3.

Turning to `CNS(=O)(=O)c1ccc(Nc2ncc(C(F)(F)F)c(-n3cc(CC(C)(C)N)cn3)n2)cc1` [Example 72, 4-[[4-[4-(2-amino-2-methyl-propyl)pyrazol-1-yl]-5-(trifluoromethyl)pyrimidin-2-yl]amino]-N-methyl-benzene sulfonamide], the pIC50 against CDK1/cyclinB1 was 7.00 to 8.00; against CDK2/cyclinE1, no less than 8.00; against CDK6/cyclinD3, no more than 7.00; at CDK4/cyclinD3 it was 7.00 to 8.00.

Turning to `CC(O)CNS(=O)(=O)c1ccc(Nc2ncc(C(F)(F)F)c(-n3cccn3)n2)cc1` (stereo not shown) [Example 110], the pIC50 was no more than 7.00 at CDK1/cyclinB1, no less than 8.00 on CDK2/cyclinE1, no more than 7.00 at CDK6/cyclinD3 and no more than 7.00 against CDK4/cyclinD3.

Take `CNS(=O)(=O)c1ccc(Nc2ncc(C(F)(F)F)c(-n3cc([C@H]4C[C@](C)(O)C4)cn3)n2)cc1` (single isomer, unassigned) [Example 104, 4-((4-(4-((1s,3s)-3-hydroxy-3-methylcyclobutyl)-1H-pyrazol-1-yl)-5-(trifluoromethyl)pyrimidin-2-yl)amino)-N-methylbenzenesulfonamide]: the pIC50 against CDK1/cyclinB1 was no more than 7.00; on CDK2/cyclinE1, 7.00 to 8.00; at CDK6/cyclinD3, no more than 7.00; against CDK4/cyclinD3, 7.00 to 8.00.

Turning to `[2H]C([2H])([2H])NS(=O)(=O)c1ccc(Nc2ncc(C(F)(F)F)c(-n3cc(CCC(C)(C)O)cn3)n2)cc1` [Example 61], the pIC50 against CDK1/cyclinB1 is no more than 7.00; against CDK2/cyclinE1, no less than 8.00; on CDK6/cyclinD3 it was no more than 7.00; against CDK4/cyclinD3, 7.00 to 8.00.
